The source of these data is US4371545A, “Isopropyl amine compounds” (Dolorgiet Beteiligungs GmbH, priority 1978, dated 1983).

The nature of data set [1]: Acute toxicity (Litchfield and Wilcoxon). The note with it: in vivo. As to the method:
The acute toxicity of the inventive compound is determined by the method of Litchfield and Wilcoxon (J. Pharmacol. exp. Therap., 96 (1949), 99).

In data set [2] the test system is β-adrenergic. In words: β-adrenergic blocking activity in mammals. Format: in vivo. As to conditions: mammals such as mice, rats and cats. An excerpt: It is also to be expected that the above compound will have similar effects when administered to humans.
Data set [3] relates to isoprenalin-induced tachycardia. In words: Inhibition of isoprenalin-induced tachycardia in anaesthetized cats. In kind it is in vivo, cat. The note with it: for ED50: Felis catus, iv, graphic extrapolation on dose-effect curve, read-out: ED50 (reduction of isoprenalin-induced tachycardia by 50%). As to the method:
A comparative screening test was conducted on anaestetized cats suffering from isoprenalin-induced tachycardia.
(§1) To provide an informative determination of the ED50 of the test preparation on isoprenalin-induced tachycardia of anaesthetized cats as well as qualitative determination of the characteristic effect of the preparation on blood pressure and heart beat frequency in resting position.
3.2 Test animals: male and female cats,
weighing 1.6 to 3.2 kg, un-
(§2) Anaesthetic: hexobarbital (Evipan-Na),
Respiration: spontaneous after tracheo-
femoralis for injection of
the test preparations; ca-
(§3) theterization of A. femo-
(§4) ralis for measuring arterial
(§5) blood pressure; blood coagu-
sodium heparinate, 600 units
(§6) phase and mean blood press-
(§7) ure, using a Statham press-
(§8) ure gauge and an HSE elec-
(§9) tromanometer; heart frequency
(§10) by means of the pulse wave
(§11) interval, using an HSE-EKA
(§12) sphygmograph or HSE frequency
3.3.2 Administration of the
Isoprenalin: i.v. injection; dose 0.3 to
1 μg/kg; volume administer-
ed: 0.1 ml/kg; intervals bet-
ween injections; 10 min.
i.v. injections, each 4 min.
prior to the next isoprenalin
injection; dosage range: 10
to 100 μg/kg and, respect.,
injection time: 10 sec.
3.3.3 Criteria determining
percentage reduction in iso-
prenalin-induced tachycardia;
measured at maximum efficien-
cy (4 min. after injection).
ED50 is determined by graph-
ic extrapolation on the
curves showing the effect-
iveness of the dose admini-
stered. ED50 means the dose
(μg/kg i.v.) required for
reducing tachycardia by
50% as compared to the ori-
Table 1 informs on the results of the above experiments. The quantitative criteria in this table are: reduction of isoprenalin-induced tachycardia in percent; ED50 determined by graphic extrapolation on the curve showing the effectiveness of the respective dose; and relative activity which may be calculated as quotient from the ED50 (μg/kg) of propranolol and the ED50 of the test preparation.

The test system of data set [4] is heart beat frequency in resting position. In words: Effect on heart beat frequency in resting position in anaesthetized cats. Format: in vivo, cat. The note with it: for HR norm (bradycardial effect, heart beat frequency in resting position): anaesthetized cats, i.v., qualitative, 10 to 100 ug/kg.
Text: as §1, §2, §9, §10, §11, §12
(§13) The remaining data in the table refer to the characteristic effect of the test preparation on the heart beat frequency in resting position, arterial blood pressure in resting position, and reduction of isoprenalin-induced drop in blood pressure; the respective data are more of qualitative nature.

Data set [5] concerns isoprenalin-induced drop in arterial blood pressure. The experiment in a line: Reduction of isoprenalin-induced drop in arterial blood pressure in anaesthetized cats. In kind it is in vivo, cat. The note with it: for m BP Isopr. (reduction in mean, isoprenalin-induced drop in arterial blood pressure): i.v., qualitative, 10 to 100 ug/kg; for isoprenalin-induced drop in arterial blood pressure: summary in words.

The test system of data set [6] is mean arterial blood pressure in resting position. The experiment in a line: Effect on mean arterial blood pressure in resting position in anaesthetized cats. In kind it is in vivo, cat. The note with it: i.v., qualitative, 10 to 100 ug/kg.
Text: as §1, §2, §3, §4, §5, §6, §7, §8, §9, §13

For the molecule `Cc1ccc([N+](=O)[O-])c(OCC(O)CNC(C)C)c1.Cl` (centres unmarked) [Compound of the invention, 1-(5-methyl-2-nitrophenoxy)-2-hydroxy-3-isopropylaminopropane-hydrochloride], the LD50 in data set [1] (ip, mouse, female and male, in each case 10 female and male mice) is 250 mg/kg; in data set [1] (iv, mouse, female and male, in each case 10 female and male mice) it was 105 mg/kg; in data set [1] (po, mouse, female and male, in each case 10 female and male mice), 1280 mg/kg; in data set [1] (rat, ip, female and male) it was 192 mg/kg; in data set [1] (rat, iv, female) it was 68.9 mg/kg; in data set [1] (rat, iv, male), 80 mg/kg. In data set [1] (rat, po, female and male), this molecule returned an LD50 of 1120 mg/kg. The β-adrenergic blocking activity result in data set [2] is given as “demonstrated”. Moreover, the ED50 in data set [3] (anaesthetized cats) is 0.021 mg/kg. In addition, in data set [3] (based on ED50 of propranolol (=1)), the “Rel. Activity (ED50 of propranolol / ED50 of test preparation)” value was determined as 2.3. For the same molecule, the “beta-blocking activity in the tests on isoprenalin-induced tachycardia” value in data set [3] (compared to propranolol, anaesthetized cats) was “good beta-blocking activity”. In data set [4], the “HR norm (bradycardial effect, heart beat frequency in resting position)” value is “+ - +++ and d.d”. Moreover, the “reduction of frequency of heart beat in resting position” value in data set [4] (depending on the original position and the dose administered) is given as “effectively reduced”. In data set [5], the “m BP Isopr. (reduction in mean, isoprenalin-induced drop in arterial blood pressure)” value was “+ - +++R and d.d”. For the same molecule, the “isoprenalin-induced drop in arterial blood pressure” value in data set [5] is “reliably reduced and blocked”.
Regarding `CC(C)NCC(O)COc1cccc2ccccc12` (centres unmarked) [Propranolol, reference compound], in data set [3] (anaesthetized cats), the ED50 is 0.048 mg/kg. Further, the “HR norm (bradycardial effect, heart beat frequency in resting position)” value in data set [4] is “+ - +++ and d.d”. Also, the “m BP norm (effectiveness in lowering blood pressure, mean arterial pressure in resting position)” value in data set [6] was “+ - ++ and d.d”. Further, in data set [5], the “m BP Isopr. (reduction in mean, isoprenalin-induced drop in arterial blood pressure)” value is “+ - +++R and d.d”; the “isoprenalin-induced drop in arterial blood pressure” value was “reliably reduced and blocked”.
